Results reported in patent US20240408167A1, “COMPOSITION FOR TREATING OCULAR DISEASES CONTAINING PEPTIDE” (Encuragen Inc., priority 2023, published 2024).
Values joined by “and” are separate entries in the source; they are usually repeats but may differ in a detail not shown here. Equal values may be shown once.

Experiments:
[1] = Stability of eye drop formulations stored at 40° C., RP-HPLC; assay type: physicochemical
Method: Eye drops using (PEG)-BHD1028 were prepared by setting eye characteristics, pH, osmolarity, and viscosity as important parameters. To adjust the above parameters, various reagents and substances were added to the test formulation, which was stored at 40° C. to confirm the stability of the formulation. In addition, the reagents used in the target preparation were mainly determined by considering the stability of the drug and the suitability of the manufacturing process. The stability of the formulation was determined based on the RP-HPLC analysis data. The shelf life was set as the period before a single impurity reached 1.0 area %, reflecting the mean kinetic temperature (MKT).
The shelf life was calculated based on the stability data reflecting the mean kinetic temperature (MKT). […] Based on this calculation, the lifespan was calculated by multiplying the number of days immediately before the area % of a single impurity reached 1.0% by a factor of 5. The target shelf life was set at 6 months or longer at 25° C., and the stability of the trehalose-only formulation is expected to have a shelf life of about 7 months.

[2] = tested on: corneal epithelium; assay: Corneal epithelial thickness after H&E staining, EDE rabbit model; assay type: in vivo; settings: all treatment groups (0.1%, 0.2%, 0.4%), vs vehicle, p<0.001
Text: The extracted eyes were washed with phosphate-buffered saline (PBS), fixed in the modified Davidson's solution, and embedded in paraffin (Histocore Arcadia, Leica, Wetzlar, Germany). Afterwards, paraffin blocks were sliced into sections of a ˜6 μm thickness, mounted on microscope slides (HistoCore AUTOCUT, Leica, Germany), air dried, and stained with hematoxylin-eosin. The stained tissue slides were imaged, and data were obtained using an optical microscope/digital slide scanner (Axio Scan.Z1, Zeiss, Oberkochen, Germany). Image measurement was performed using ZEN (Zeiss, Germany) and ImageJ (NIH, Bethesda, […], USA) software programs.
The pathophysiology of dry eye syndrome includes pathological changes in the epithelium such as erosion, cicatrix, scar, corneal neovascularization and, in severe conditions, corneal perforation. The protective effect of (PEG)-BHD1028 on the epithelium was evaluated by measuring the corneal thickness using ZEN (Zeiss, Germany) microscopy software program after H&E tissue staining.

[3] = Osmotic pressure of trehalose-mannitol composite formulations; assay type: physicochemical; settings: trehalose-mannitol composite formulation
Method: The osmotic pressure of the trehalose-only formulations according to the (PEG)-BHD1028 content (see Table 5) and the osmotic pressure of the trehalose-mannitol composite formulations according to the (PEG)-BHD1028 content (see Table 6) were measured, and reflecting the experimental results, the osmolarity including the 0.5% (PEG)-BHD1028 concentration was adjusted to about 300 mOsm/kg.

[4] = tested on: CD4+IFN-γ+T cell; assay: CD4+IFN-γ+T cell density by flow cytometry, EDE mouse model; assay type: in vivo
Method: The cornea, conjunctiva, and each tissue required for analysis were excised with scissors, incised, and shaken with 0.5 mg/mL collagenase type D at 37° C. for 1 hour. After pulverizing the tissue, the resulting mixture was passed through a cell strainer, centrifuged, and resuspended in phosphate-buffered saline containing 1% bovine serum albumin.
In DED, corneal barrier destruction and epithelial cell loss are accompanied by bone marrow and T cell infiltration. Activated T lymphocytes are the primary producers of Th-1 cytokines and interferon (IFN)-γ, which promote cell death at the ocular surface. To evaluate the anti-inflammatory effect of (PEG)-BHD1028 in the EDE mouse model, immune cells that play the role of inflammatory cell surface markers were quantified by flow cytometry with one animal per group.

[5] = tested on: apoptotic cells in cornea and conjunctiva; assay: Apoptotic cells by TUNEL, rabbit model; assay type: in vivo; settings: for cell death rate in the conjunctiva: Day 10; for percentage of apoptotic cells per unit area, cornea: after 10 days
Method: The eyes and appendages from each group were excised, fixed in the modified Davidson's solution, and embedded in paraffin, and the tissue sections were TUNEL-stained. In each section, the degree of apoptosis in the cornea and conjunctiva was measured using ZEN (Zeiss, Oberkochen, Germany) and Image J v1.51j8 (NIH, Bethesda, MD, USA) software programs.
The percentage of the apoptotic cells per unit area was evaluated after 10 days in the rabbit model. In the cornea, apoptotic cells were detected at a percentage of 35±6% in the normal control group and 74±2% in the vehicle group. In the 0.1%, 0.2%, and 0.4% (PEG)-BHD1028 treatment groups, the percentage was 40±12%, 39±3%, and 35±4%, respectively. […] In addition, the cell death rate in the conjunctiva was 7±5% in the normal control group and 56±4% in the vehicle group. The percentage in the 0.1%, 0.2% and 0.4% (PEG)-BHD1028 treatment groups was 35±4%, 26±3% and 19±4% on Day 10.

[6] = pI value of the API; assay type: physicochemical

NH2-Tyr-Tyr-Phe-Ala-Tyr-His-Pro-Asn-Ile-Pro-Gly-Leu-Tyr-Tyr-Phe-COOH (H-YYFAYHPNIPGLYYF-OH; also: PEGylated, site not given here (mPEG), acetate salt) [(PEG)-BHD1028]
formulation stability ([1]; eye drops with sodium EDTA (0.5%), 40° C. for 25 days): stability was maintained
formulation stability (impurities) ([1]; eye drops with sodium bisulfate (0.03%), Day 7 at 40° C.): impurities rapidly increased
impurities ([1]; eye drops with sodium hyaluronate 0.1%, 40° C. for 37 days, all impurities): less than 1.0 area %
formulation stability and pH, water versus PBS as diluent ([1]; eye drops, between the two formulations): no significant difference in stability data and pH
formulation stability ([1]; formulations including PEG (PEG400, PEG5000, PEG3350) as osmotic reagent): considerably decomposed
formulation stability ([1]; formulations including salts such as KCl and NaCl, Day 6 at 40° C.): considerably decomposed
formulation stability ([1]; mannitol, trehalose, or a combination of mannitol and trehalose as osmotic reagent): stable
mean corneal epithelial thickness [2]: significantly greater than that of the vehicle treated animals
osmotic pressure, Mean ([3]; 0.5%): 301.00 mOsm/kg
osmotic pressure, single measurements #1-#3 ([3]; 0.5%): 301 mOsm/kg and 399 mOsm/kg and 303 mOsm/kg
osmotic pressure, Mean ([3]; 1.5%): 309.33 mOsm/kg
osmotic pressure, single measurements #1-#3 ([3]; 1.5%): 309 mOsm/kg and 312 mOsm/kg and 307 mOsm/kg
osmotic pressure, Mean ([3]; 4.5%): 338.33 mOsm/kg
osmotic pressure, single measurements #1-#3 ([3]; 4.5%): 338 mOsm/kg and 339 mOsm/kg
CD4+IFN-γ+T cell density ([4]; conjunctiva, 0.001%): 18.96%
CD4+IFN-γ+T cell density ([4]; conjunctiva, 0.01%): 15.31%
CD4+IFN-γ+T cell density ([4]; conjunctiva, 0.1%): 9.91%
CD4+IFN-γ+T cell density ([4]; cornea, 0.001%): 18.62%
CD4+IFN-γ+T cell density ([4]; cornea, 0.01%): 16.78%
CD4+IFN-γ+T cell density ([4]; cornea, 0.1%): 11.66%
CD4+IFN-γ+T cell density ([4]; lacrimal gland, 0.001%): 18.45%
CD4+IFN-γ+T cell density ([4]; lacrimal gland, 0.01%): 14.60%
CD4+IFN-γ+T cell density ([4]; lacrimal gland, 0.1%): 10.70%
cell death rate in the conjunctiva ([5]; 0.1%): 35±4%
percentage of apoptotic cells per unit area, cornea ([5]; 0.1%): 40±12%
cell death rate in the conjunctiva ([5]; 0.2%): 26±3%
percentage of apoptotic cells per unit area, cornea ([5]; 0.2%): 39±3%
cell death rate in the conjunctiva ([5]; 0.4%): 19±4%
percentage of apoptotic cells per unit area, cornea ([5]; 0.4%): 35±4%
pI value [6]: approximately 6.6
